Results: patent publication US9476099B2 (TRUSTEES OF DARTMOUTH COLLEGE, priority 2012, dated 2016)

System: NT2/D1-R1 control and DNMT3B knockdown cells
Assay: Genome-wide expression analysis with PAM clusters, control and DNMT3B knockdown cells (Tables 8-14)
Settings: sh-Ctrl + aza, NT2/D1-R1, decitabine 10 nM 3 days

Nc1ncn([C@H]2C[C@H](O)[C@@H](CO)O2)c(=O)n1 [aza]
ACSS2 (NM_0010765) gene expression, Mean: 354.703
ADCK1 (NM_020421) gene expression, Mean: 203.584
ADCY1 (NM_021116) gene expression, Mean: 106.028
AGAP1 (NM_014914) gene expression, Mean: 188.156
AK056312 gene expression, Mean: 293.846
ANKRD9 (NM_152326) gene expression, Mean: 614.423
APEH (NM_001640) gene expression, Mean: 720.135
APP (NM_201414) gene expression, Mean: 326.901
C1orf115 (NM_024709) gene expression, Mean: 213.203
C2orf34 (NM_024766) gene expression, Mean: 205.5
C7orf47 (NM_145030) gene expression, Mean: 466.635
C16orf35 (NM_0010394) gene expression, Mean: 630.186
CA4 (NM_000717) gene expression, Mean: 1449.98
CACNA2D2 (NM_006030) gene expression, Mean: 304.761
CD24 (NM_013230) gene expression, Mean: 1797.88
CD248 (NM_020404) gene expression, Mean: 178.853
CDC42EP5 (NM_145057) gene expression, Mean: 219.473
CDH3 (NM_001793) gene expression, Mean: 651.295
CEBPB (NM_005194) gene expression, Mean: 1388.19
CHST13 (NM_152889) gene expression, Mean: 151.937
CLASP1 (NM_015282) gene expression, Mean: 301.334
CLIP2 (NM_032421) gene expression, Mean: 175.136
COMMD1 (NM_152516) gene expression, Mean: 235.362
COMMD7 (NM_0010993) gene expression, Mean: 915.427
CRMP1 (NM_0010148) gene expression, Mean: 328.665
CTNNBIP1 (NM_020248) gene expression, Mean: 144.946
CXCL16 (NM_022059) gene expression, Mean: 279.669
CYP2F1 (NM_000774) gene expression, Mean: 126.222
CYP2S1 (NM_030622) gene expression, Mean: 604.679
DBC1 (NM_014618) gene expression, Mean: 197.271
DDIT4 (NM_019058) gene expression, Mean: 522.11
DGKQ (NM_001347) gene expression, Mean: 247.199
DLL3 (NM_016941) gene expression, Mean: 120.925
DPYSL3 (NM_001387) gene expression, Mean: 602.964
DYM (NM_017653) gene expression, Mean: 217.362
DYSF (NM_003494) gene expression, Mean: 188.291
EEF2K (NM_013302) gene expression, Mean: 243.652
EPHA1 (NM_005232) gene expression, Mean: 497.427
EVI5L (NM_145245) gene expression, Mean: 247.813
EVL (NM_016337) gene expression, Mean: 537.424
EXTL3 (NM_001440) gene expression, Mean: 695.163
F11R (NM_016946) gene expression, Mean: 182.523
FAF1 (NM_007051) gene expression, Mean: 209.978
FAM125A (NM_138401) gene expression, Mean: 564.523
FAM127A (NM_0010781) gene expression, Mean: 867.222
FCGBP (NM_003890) gene expression, Mean: 247.577
FDFT1 (NM_004462) gene expression, Mean: 417.59
FIGNL2 (NM_0010136) gene expression, Mean: 231.29
FLNB (NM_001457) gene expression, Mean: 679.266
FOXN3 (NM_005197) gene expression, Mean: 274.017
GAL (NM_015973) gene expression, Mean: 1375.17
GAS7 (NM_201433) gene expression, Mean: 225.598
GLG1 (NM_012201) gene expression, Mean: 958.607
GRAMD1A (NM_020895) gene expression, Mean: 767.701
GTF3C1 (NM_001520) gene expression, Mean: 387.976
HCFC1R1 (NM_0010020) gene expression, Mean: 427.673
HESX1 (NM_003865) gene expression, Mean: 204.885
HINT2 (NM_032593) gene expression, Mean: 537.794
HIST3H2A (NM_033445) gene expression, Mean: 314.077
HIST4H4 (NM_003541) gene expression, Mean: 218.72
HK1 (NM_033500) gene expression, Mean: 3617.1
IDH1 (NM_005896) gene expression, Mean: 668.525
IL21R (NM_181078) gene expression, Mean: 154.278
JPH3 (NM_020655) gene expression, Mean: 167.797
KIF1A (NM_004321) gene expression, Mean: 160.071
KIF1B (NM_015074) gene expression, Mean: 252.94
LDB2 (NM_001290) gene expression, Mean: 202.228
LDOC1 (NM_012317) gene expression, Mean: 502.418
LHFPL4 (NM_198560) gene expression, Mean: 215.926
LONP1 (NM_004793) gene expression, Mean: 779.763
LPCAT3 (NM_005768) gene expression, Mean: 477.318
LRBA (NM_006726) gene expression, Mean: 170.16
LRRC33 (NM_198565) gene expression, Mean: 145.858
MAPK3 (NM_0010400) gene expression, Mean: 277.581
MAPKAP1 (NM_0010066) gene expression, Mean: 182.648
MED30 (NM_080651) gene expression, Mean: 647.26
MID1IP1 (NM_021242) gene expression, Mean: 649.056
MKRN1 (NM_013446) gene expression, Mean: 2856.3
MSRB2 (NM_012228) gene expression, Mean: 934.409
MYO5C (NM_018728) gene expression, Mean: 151.991
NANOG (NM_024865) gene expression, Mean: 706.99
NCOR2 (NM_006312) gene expression, Mean: 493.089
NDUFS4 (NM_002495) gene expression, Mean: 337.053
NFE2L3 (NM_004289) gene expression, Mean: 222.942
NGFRAP1 (NM_206917) gene expression, Mean: 1121.05
NKX3-2 (NM_001189) gene expression, Mean: 409.938
NM_014745 gene expression, Mean: 379.916
NPAS1 (NM_002517) gene expression, Mean: 201.893
NPTX2 (NM_002523) gene expression, Mean: 367.499
ODZ3 (NM_0010804) gene expression, Mean: 189.247
P4HB (NM_000918) gene expression, Mean: 1383.99
PACSIN1 (NM_020804) gene expression, Mean: 216.839
PCDH19 (NM_020766) gene expression, Mean: 151.727
PCK2 (NM_0010180) gene expression, Mean: 116.02
PDZD4 (NM_032512) gene expression, Mean: 182.348
PEMT (NM_148172) gene expression, Mean: 595.006
PEX14 (NM_004565) gene expression, Mean: 250.351
PGM1 (NM_002633) gene expression, Mean: 1814.18
PHC1 (NM_004426) gene expression, Mean: 951.052
PIM2 (NM_006875) gene expression, Mean: 985.879
PITPNC1 (NM_181671) gene expression, Mean: 180.093
PNKP (NM_007254) gene expression, Mean: 424.886
PPAP2A (NM_176895) gene expression, Mean: 348.062
PPP1R1B (NM_181505) gene expression, Mean: 238.675
PQLC3 (NM_152391) gene expression, Mean: 198.571
PRSS8 (NM_002773) gene expression, Mean: 991.013
PSAT1 (NM_021154) gene expression, Mean: 1824.54
PTOV1 (NM_017432) gene expression, Mean: 720.62
PTPLA (NM_014241) gene expression, Mean: 227.16
RAB3IP (NM_175624) gene expression, Mean: 601.056
RALY (NM_007367) gene expression, Mean: 833.663
RASIP1 (NM_017805) gene expression, Mean: 185.874
RASL11B (NM_023940) gene expression, Mean: 432.564
RCN2 (NM_002902) gene expression, Mean: 501.026
REEP6 (NM_138393) gene expression, Mean: 405.813
RNF130 (NM_018434) gene expression, Mean: 174.702
ROD1 (NM_005156) gene expression, Mean: 637.491
RPS6KA2 (NM_0010069) gene expression, Mean: 141.693
SAT1 (NM_002970) gene expression, Mean: 1895.82
SCARB1 (NM_005505) gene expression, Mean: 433.694
SEMA4B (NM_198925) gene expression, Mean: 288.428
SEMA4D (NM_006378) gene expression, Mean: 315.221
SEMA6B (NM_032108) gene expression, Mean: 218.592
SH2B3 (NM_005475) gene expression, Mean: 424.579
SLC3A2 (NM_0010132) gene expression, Mean: 898.448
SLC8A2 (NM_015063) gene expression, Mean: 166.295
SLC16A10 (NM_018593) gene expression, Mean: 159.709
SLC22A23 (NM_021945) gene expression, Mean: 233.534
SND1 (NM_014390) gene expression, Mean: 423.122
SOX2 (NM_003106) gene expression, Mean: 271.23
SPRY1 (NM_005841) gene expression, Mean: 248.973
SPSB2 (NM_032641) gene expression, Mean: 474.363
SRPX (NM_006307) gene expression, Mean: 222.901
SURF6 (NM_006753) gene expression, Mean: 1293.98
TBCD (NM_005993) gene expression, Mean: 256.961
TCEA2 (NM_198723) gene expression, Mean: 483.559
TCF7L1 (NM_031283) gene expression, Mean: 144.548
TIMP4 (NM_003256) gene expression, Mean: 389.521
TMC6 (NM_007267) gene expression, Mean: 346.392
TMEM145 (NM_173633) gene expression, Mean: 166.627
TPST2 (NM_0010085) gene expression, Mean: 370.953
TRAPPC9 (NM_031466) gene expression, Mean: 104.733
TSPAN9 (NM_006675) gene expression, Mean: 1313.95
TUBB4 (NM_006087) gene expression, Mean: 253.587
UBE2E2 (NM_152653) gene expression, Mean: 347.293
UNC84B (NM_015374) gene expression, Mean: 465.92
VCX2 (NM_016378) gene expression, Mean: 415.874
VCX3A (NM_016379) gene expression, Mean: 1237.23
VCX3B (NM_0010018) gene expression, Mean: 1368.4
VSNL1 (NM_003385) gene expression, Mean: 249.848
WDR8 (NM_017818) gene expression, Mean: 619.054
XBP1 (NM_0010795) gene expression, Mean: 505.041
XM_373896 gene expression, Mean: 276.846
XM_926633 gene expression, Mean: 1782.67
XM_932919 gene expression, Mean: 283.159
XM_933796 gene expression, Mean: 270.602
XM_943677 gene expression, Mean: 245.788
ZBTB46 (NM_025224) gene expression, Mean: 207.588
ZSWIM4 (NM_023072) gene expression, Mean: 393.591
HIST1H2BK (NM_080593) gene expression, Mean (first HIST1H2BK entry (r906)): 1316.1
TRPC4AP (NM_015638) gene expression, Mean (first TRPC4AP entry (r880)): 633.52
HIST1H2BK (NM_080593) gene expression, Mean (second HIST1H2BK entry (r952)): 332.966
TRPC4AP (NM_015638) gene expression, Mean (second TRPC4AP entry (r892)): 1094.19
